Data as given in patent publication US9968646B2, “Method for treatment of prostatic hyperplasia and/or ameliorating urinary disturbance with banana flower extract” (TCI Co., Ltd., priority 2014, dated 2018).

Columns and labels:
[1] = tested on: LNCap human prostate cancer cell lines; assay: MTT survival rate of LNCap cells stimulated by testosterone; assay type: cell-based
Procedure: In one embodiment, LNCap human prostate cancer cell lines (BCRC 60088) purchased from Bioresource Collection and Research Center (BCRC) are used. 2×10^4 LNCap cells/well are placed in the 96-well plate and cultured for 24 hr. LNCap cells treated with testosterone and various concentrations (0.5 mg/mL and 2.0 mg/mL) of the banana flower extract, and co-cultured for 3 days. LNCap cells are treated with the banana flower extract without testosterone as negative control, and LNCap cells are treated with testosterone without the banana flower extract as vehicle control. The survival rate of LNCap cells is evaluated using the MTT assay, LNCap cells are treated with 1 mg/mL MTT (3-[4,5-dimethyl thiazol-2-yl]-2,5diphenyl tetrazolium bromide) for 2 hr, and dimethyl sulfoxide (DMSO) is added to dissolve blue formazan crystals. An absorbance is measured using a reader at the wavelength of 570 nm.

[2] = tested on: dihydrotestosterone synthesis in LNCap cells; assay: Dihydrotestosterone level (ELISA) in LNCap cells stimulated by testosterone; assay type: cell-based, human; conditions: co-treatment of testosterone and 0.2 mg/mL finasteride; testosterone alone = 100%
Procedure: 1×10^5 LNCap cells/well are cultured with RPMI 1640 containing 10% FBS and 1% sodium pyruvate in 9-cm culture plate for 36 hr. […] And all LNCap cells are stimulated by 10 μg/mL testosterone.
Cell lysis is processed prior to analysis of dihydrotestosterone level: LNCap cells are dispersed with typsin and centrifuged to collect the suspension cells, the suspension cells are washed with cold PBS, and the suspension cells are resuspended in PBS(1×) and sonicated 4 times; or LNCap cells are frozen at −20° C. or lower, and stirred frequently until thawed for 3 times to destroy cells. The destroyed cells are centrifuged at 150× g at 2-8° C. for 10 min to remove the cell debris. Finally, dihydrotestosterone ELISA Kit (Uscn Life science Inc.) is used to detect dihydrotestosterone level.
LNCap cells are treated with the banana flower extract of the present invention and testosterone as above-mentioned method, LNCap cells treated with the banana flower extract without testosterone as negative control, and LNCap cells treated with testosterone without the banana flower extract as vehicle control, are detected dihydrotestosterone level. […] As co-treating with testosterone and the banana flower extract (2 mg/mL), the dihydrotestosterone synthesis rate of LNcap cells is decreased about 30%. […]

Row | Structure (SMILES) | survival rate of LNcap cells ([1]; testosterone alone, without testosterone = 100%) | LNcap cell proliferation stimulated by testosterone ([1]; co-treatment of testosterone and 0.2 mg/mL finasteride) | reduction of dihydrotestosterone synthesis rate [2] [%]
1 | C[C@]12CC[C@H]3[C@@H](CCC4=CC(=O)CC[C@@]43C)[C@@H]1CC[C@@H]2O [testosterone] | about 110% | – | –
2 | CC(C)(C)NC(=O)[C@H]1CC[C@H]2[C@@H]3CC[C@H]4NC(=O)C=C[C@]4(C)[C@H]3CC[C@]12C [finasteride] | – | slightly inhibit | 10
